Legend:
[1] = tested on: Hyaluronidase from bovine testes I-S Type; assay: Enzymatic degradation of hyaluronic acid by hyaluronidase, Mw followed by HP-SEC-TDA; format: biochemical; details: in words
Description: The molecular weight distribution of degraded acids will be analyzed by using High Performance Size Exclusion Chromatography coupled with a Triple Detector Array (HP-SEC-TDA).
The following is the list of reagents and materials used: • Hyaluronic acid (Mw 1.348.000 Da), Contipro a.s. (Czech Republic) • Hyaluronic acid (Mw 1.450.000 Da), Lehvoss Italia S.r.l. (Italy) • Glycerophosphocholine • Ascorbyl Palmitate • Citric acid monohydrate, Sigma Aldrich • Deionized H2O obtained with a Culligan apparatus; • Hyaluronidase from bovine testes I-S Type. 400-1000 units/mg. Sigma Aldrich; • NaNO3. Sigma Aldrich; • NaN3. Sigma Aldrich; • Snap-it vial 0.3 ml, 11.6×32 mm. Thermo Scientific; • Snap-it cap 11 mm, Thermo Scientific; • Sodium citrate diidrate, Sigma Aldrich. Samples Prepared and Tested:
10 ml of solution were hydrolyzed.
Buffer Solution: Solution 1 has been added to Solution 2 and stirred at room temperature for 30′. Resulting pH=6.06.
Hyaluronidase: about 10 mg of hyaluronidase were dissolved in about 1 ml of H2O and stirred at room temperature for 3 hours (10 mg/ml).
The solutions were stirred at 38° C. in an oil bath for about 1 h before adding 67 μl of the enzyme solution (HA/Hyaluronidase 15/1 w/w).
Different aliquots of solutions were collected at different timing (1 h; 2 h; 3 h; 4 h; 5 h; 6 h, 24 h) and heated at 100° C. for 5′ using a thermoshaker to denature the enzyme. The solutions were filtrated to remove the precipitated enzyme (LLG-Syringe filter CA pore size 0.20 μm. Ø 13 mm). Before HP-SEC-TDA analyses, the solutions were diluted to 0.5 mg/ml of HA with mobile phase.
Two equivalent HP-SEC-TDA instruments were used: • 1) Viscotek system model TDA305. equipped with Refractive Index, Right and Low Angle Light Scattering and Viscometers detectors, was used under the following conditions: • Columns: 2 columns TSKGMPWXL 13 μm. […]

hyaluronidases = details: known, in words; cited from earlier work
[2] = as disclosed in WO93/19730; cited from earlier work

Structure (SMILES) | effect on the enzymatic kinetics of HA degradation [1] | effect on the enzymatic kinetics of HA degradation ([1]; listed as ascorbyl palmitate) | inhibitory activity against hyaluronidases (hyaluronidases) | systemic toxicity [2] | topical tolerability [2]
CCCCCCCCCCCCCCCC(=O)OC[C@H](O)[C@H]1OC(=O)C(O)=C1O [Ascorbyl Palmitate, Ascorbyl palmitate] | significantly effective in slowing down the enzymatic kinetics | significantly effective in slowing enzymatic kinetics | significant inhibitory activity |  | 
C[N+](C)(C)CCOP(=O)([O-])OC[C@H](O)CO [Glycerophosphocholine] | does not contribute in any way to the enzymatic kinetics |  |  | practically devoid of systemic toxicity | marked topical tolerability

Source: patent US12251398B2, “Topical compositions designated to maintain and/or restore the integrity of the mucosa and damaged epidermis” (RICERFARMA S.R.L., priority 2020, dated 2025)
